Experiments:
Type in all cases: cell-based
SPATA5 = SPATA5 gene expression (qPCR) in human skin fibroblasts; conditions: 24 hours, Untreated = 1.00
Experimental: (§1) Human skin fibroblasts (NHDF-Neo-Human Dermal Fibroblasts, Neonatal, Lonza, CC-2509) were purchased from Lonza and then used. The purchased cells were cultured in an incubator (37 °C, 5% CO2) using media prepared by mixing Dulbecco Modified Eagle Medium (DMEM, Thermo Fisher Scientific) with 10% fetal bovine serum (FBS) and 1% antibiotics (penicillin streptomycin).
(§2) To analyze the efficacy of promoting collagen mRNA synthesis, human skin fibroblasts were dispensed on a 6-well plate at 1.5×10^5 cells/well and cultured in an incubator (37 °C, 5% CO2) for 24 hours. The substances were added to serum free media at an appropriate concentration/combination, and then the cells were again cultured for 24 hours under the same conditions. Thereafter, mRNA was obtained using an RNA-spin total RNA extraction kit (iNtRON Biotechnology, 17211), and cDNA was synthesized using a cDNA synthesis kit (PhileKorea Technology, ET21100). The expression level of each gene was analyzed by performing qPCR using the synthesized cDNA and taqman probes (assay ID: COL1A1-Hs00164004_m1, COL3A1-Hs00943809_m1, PPARGC1B-Hs00993805_m1, SPATA5-Hs01047535_m1, EN1-Hs00154977_m1).
Although the role of SPATA5 in the skin has not been studied, SPATA5 may play a role in mitochondrial function and ATP production. […]

Type I collagen (COL1A1) = assay: collagen mRNA synthesis promotion (qPCR), COL1A1 in human skin fibroblasts; conditions: 24 hours, mRNA by qPCR
Experimental: as §1
as §2, with “COL4A1-Hs00266237_m1, BNC2-Hs00417700_m1, EDAR-Hs00223468_m1).” for “PPARGC1B-Hs00993805_m1, SPATA5-Hs01047535_m1, EN1-Hs00154977_m1).”
as §2, with “COL4A1-Hs00266237_m1, sgpp2-Hs00544786_m1), ADIPOQ F primer (5′-[…]-3′), and ADIPOQ R primer (5′-[…]-3′).” for “COL3A1-Hs00943809_m1, PPARGC1B-Hs00993805_m1, SPATA5-Hs01047535_m1, EN1-Hs00154977_m1).”
as §2

PPARGC1B = PPARGC1B gene expression (qPCR) in human skin fibroblasts; conditions: 24 hours, Non-treated = 1.00
Experimental: as §1, §2
For example, PPARGC1B, one of co-activators of peroxisome proliferator activated receptor-γ (PPARγ), has been known to be associated with melanogenesis in the skin. PPARGC1B has been reported to be involved in the wrinkle formation by mitochondrial dysfunction and the wrinkle reduction by mitochondrial function recovery (Cell Death & Disease volume 9, Article number: 735 (2018)). Therefore, the increased expression level of PPARGC1B serves to restore the function of mitochondria, which are cell energy producing organelles, thereby preventing and recovering from nasolabial wrinkles, which are deeply indented wrinkles accumulated over a relatively long time. That is, it can be seen that the increase in expression level of PPARGC1B by the treatment with the substances of the present invention is effective in wrinkle improvement.

EDAR = EDAR gene expression (qPCR) in human skin fibroblasts; conditions: 24 hours, FIG. 7
Experimental: as §1
as §2, with “COL4A1-Hs00266237_m1, BNC2-Hs00417700_m1, EDAR-Hs00223468_m1). […]” for “PPARGC1B-Hs00993805_m1, SPATA5-Hs01047535_m1, EN1-Hs00154977_m1).”

[1] = tested on: Type III collagen (COL3A1); assay: collagen mRNA synthesis promotion (qPCR), COL3A1 in human skin fibroblasts; conditions: 24 hours, mRNA by qPCR
Experimental: as §1
as §2, with “Thereafter, mRNA was obtained using an RNA-spin total RNA extraction kit (iNtRON Biotechnology, 17211), and cDNA was synthesized using a cDNA synthesis kit (PhileKorea Technology, ET21100).” left out, “COL4A1-Hs00266237_m1, BNC2-Hs00417700_m1, EDAR-Hs00223468_m1).” for “PPARGC1B-Hs00993805_m1, SPATA5-Hs01047535_m1, EN1-Hs00154977_m1).”
To analyze the efficacy of promoting collagen mRNA synthesis, human skin fibroblasts were dispensed on a 6-well plate at 1.5×10^5 cells/well and cultured in an incubator (37 °C, 5% CO2) for 24 hours. […] The expression level of each gene was analyzed by performing qPCR using the synthesized cDNA and taqman probes (assay ID: COL1A1-Hs00164004_m1, COL3A1-Hs00943809_m1, PPARGC1B-Hs00993805_m1, SPATA5-Hs01047535_m1, EN1-Hs00154977_m1).

[2] = tested on: Type IV collagen (COL4A1); assay: collagen mRNA synthesis promotion (qPCR), COL4A1 in human skin fibroblasts; conditions: 24 hours, mRNA by qPCR
Experimental: as §1
as §2, with “COL4A1-Hs00266237_m1, BNC2-Hs00417700_m1, EDAR-Hs00223468_m1).” for “PPARGC1B-Hs00993805_m1, SPATA5-Hs01047535_m1, EN1-Hs00154977_m1).”
as §2, with “COL4A1-Hs00266237_m1, sgpp2-Hs00544786_m1), ADIPOQ F primer (5′-[…]-3′), and ADIPOQ R primer (5′-[…]-3′).” for “COL3A1-Hs00943809_m1, PPARGC1B-Hs00993805_m1, SPATA5-Hs01047535_m1, EN1-Hs00154977_m1).”

BNC2 = BNC2 gene expression (qPCR) in human skin fibroblasts; conditions: 24 hours, FIG. 6
Experimental: as §1
as §2, with “COL4A1-Hs00266237_m1, BNC2-Hs00417700_m1, EDAR-Hs00223468_m1).” for “PPARGC1B-Hs00993805_m1, SPATA5-Hs01047535_m1, EN1-Hs00154977_m1).”
The degrees of fine wrinkle improvement by the substances of the present invention were investigated on the basis of the polymorphism markers showing correlations with the degree of skin fine wrinkles, obtained through Example 1. […]

ADIPOQ = ADIPOQ gene expression (qPCR) in human skin fibroblasts; conditions: 24 hours, FIG. 16
Experimental: as §1
as §2, with “COL4A1-Hs00266237_m1, sgpp2-Hs00544786_m1), ADIPOQ F primer (5′-[…]-3′), and ADIPOQ R primer (5′-[…]-3′).” for “COL3A1-Hs00943809_m1, PPARGC1B-Hs00993805_m1, SPATA5-Hs01047535_m1, EN1-Hs00154977_m1).”
As another example, ADIPOQ, a gene expressing adiponectin, is a substance primarily secreted in adipose tissue, and ADIPOQ in the skin is mainly known for anti-inflammatory effects thereof. […]

SGPP2 = SGPP2 gene expression (qPCR) in human skin fibroblasts; conditions: 24 hours, FIG. 15
Experimental: as §1
as §2, with “COL4A1-Hs00266237_m1, sgpp2-Hs00544786_m1), ADIPOQ F primer (5′-[…]-3′), and ADIPOQ R primer (5′-[…]-3′).” for “COL3A1-Hs00943809_m1, PPARGC1B-Hs00993805_m1, SPATA5-Hs01047535_m1, EN1-Hs00154977_m1).”
For example, SGPP2 is a gene expressing an enzyme capable of dominantly acting in an inflammation status, and the overactivity of SGPP2 may be more vulnerable to inflammatory signals. […]

Molecule	expression of Type I collagen (COL1A1) (Type I collagen (COL1A1))	expression of Type IV collagen (COL4A1) [2]	also measured
Cc1ncc(CO)c(CO)c1O.Cl [pyridoxine HCl]	promoted the expression	–	Expression level of gene (SPATA5) (SPATA5): 1.36
O=C[C@@H](O)[C@@H](O)[C@H](O)[C@H](O)COP(=O)([O-])[O-].[Na+].[Na+] [sodium mannose phosphate, D-mannose-6-phosphate sodium salt]	promoted the expression	–	Gene expression level (PPARGC1B) (PPARGC1B): 1.53
C=C(C)[C@@H]1CC[C@]2(C)CC[C@@H]3[C@H](CC[C@H]4[C@@]3(C)CC[C@H]3C(C)(C)[C@@H](O)CC[C@]43C)[C@@H]12 [lupeol]	–	–	expression of EDAR (EDAR): increased the expression; expression of Type III collagen (COL3A1) [1]: promoted the expression
O=C(CCc1ccc(O)cc1)c1c(O)cc(O)cc1O [phloretin]	promoted the expression	promoted the expression	expression of BNC2 (BNC2): inhibited the expression; expression of Type III collagen (COL3A1) [1]: promoted the expression
CC12CCC(CC1=O)C2(C)C (centres unmarked) [camphor]	promoted the expression	–	Gene expression level (PPARGC1B) (PPARGC1B): 2.63
NC(=O)c1cccnc1 [niacinamide]	promoted the expression	–	Gene expression level (PPARGC1B) (PPARGC1B): 1.52
NC[C@H]1CC[C@H](C(=O)O)CC1 [tranexamic acid, reference compound]	promoted the expression	–	Expression level of gene (SPATA5) (SPATA5): 1.21
COc1ccc(-c2coc3cc(O)ccc3c2=O)cc1 [formononetin]	promoted the expression	promoted the expression	expression of ADIPOQ (ADIPOQ): increased the expression
Cc1cc(O)c2c(c1)C(=O)c1cc(O)cc(O)c1C2=O [emodin]	promoted the expression	promoted the expression	expression of ADIPOQ (ADIPOQ): increased the expression
COc1cc(/C=C/C(=O)NCCc2c[nH]c3ccc(O)cc23)ccc1O [N-feruloylserotonin]	–	promoted the expression	expression of SGPP2 (SGPP2): inhibited the expression
fucoidan	–	promoted the expression	expression of SGPP2 (SGPP2): inhibited the expression

Reference: patent US20260375233A1, “COMPOSITION FOR IMPROVING SKIN WRINKLES” (LG H&H CO., LTD., priority 2022, published 2026)
